Experimental findings from US20210221784A1, “COMPOUNDS AND COMPOSITIONS FOR THE TREATMENT OF PAIN” (Université de Strasbourg, priority 2018, published 2021) are described below.

Where only a bound is given, the exact number is not on record here.

The Ki is a dissociation constant, usually derived from enzyme kinetics or from competition with a known ligand. What is called IC50 is the concentration that inhibits the measured activity by half. For orientation: melting point means the temperature, or range, at which the solid turns liquid.

For one data set, the target named is T1, hNPFFR2 (Homo sapiens, UniProt Q9Y5X5).
T1 construct: expressed in transfected cells; membranes
Briefly: Radioligand binding competition, membranes from CHO cells expressing hNPFFR2. Particulars: 0.015 nM [D-Tyr1[125I], N-MePhe3]-NPFF, 1 hr at 25° C.; for Ki: read-out: NPFF2-R Ki. As to the method:
(§1) Competition experiments with membranes from CHO cells stably expressing hNPFFR1 and hNPFFR2 were performed essentially as described in Elhabazi, K., et al. Neuropharmacology, 2013. 75C, 164-171., Briefly, hNPFFR1 or hNPFFR2 membranes (5 to 10 μg of proteins) were incubated (1 hr at 25° C.; 0.25 mL total volume) with 0.015 nM [D-Tyr1[125I], N-MePhe3]-NPFF (Hartmann Analytic GmbH) in 50 mM HEPES (pH 7.4), 1 mM CaCl2, 1 mM MgCl2 and 0.1% bovine serum albumin. Non-specific binding was determined in the presence of 10 μM RFRP-3. Incubation was terminated by rapid filtration through a 96-well GF/B unifilter apparatus (Perkin Elmer Life and Analytical Sciences, Courtaboeuf, France). Unifilters were washed five times with binding buffer, then dried for 1 h at 65° C. After addition of 40 μL scintillation cocktail (Microscint-O, Perkin Elmer) per well, bound radioactivity was determined on a TopCount scintillation counter (Perkin Elmer).

Data set [1] concerns the target T2, human NPFFR1 (hNPFFR1) receptor (Homo sapiens, UniProt Q9GZQ6).
T2 construct: expressed in transfected cells; host or cells: HEK-293 T cells, transient co-transfection
The data set is described as follows: Human NPFFR1 evaluation using BRET biosensors in HEK-293 T cells. In kind it is cell-based. Particulars: hNPFFR1 in HEK-293 T cells, stimulated by EC80 RFRP-3, read-out: IC50 of antagonist activity. The protocol:
Compounds of the present invention were tested successively for their agonist and antagonist activities on human NPFFR1 (hNPFFR1) receptor transiently over-expressed in HEK-293 T cells. Compounds exert agonist activity if, by themselves in absence of neuropeptide RFRP-3 (also named NPVF) they activate hNPFFR1; and they exert antagonist activity if they decrease the action of RFRP-3 on the receptor. The assay used to measure compound activity is based on BRET (Bioluminescence Resonance Energy Transfer) biosensors and is designed to monitor the plasma membrane translocation of protein that interacts with specific Ga subunit. The specific effector (luciferase tagged: BRET donor) recruited at the membrane will be in close proximity to a plasma membrane anchor (GFP tagged: BRET acceptor) to induce a BRET signal (Ramdan et al, 2006, Chapter 5, Current Protocols in Neuroscience).
HEK-293 T cells are maintained in Dulbecco's Modified Eagle's Medium supplemented with 10% Foetal Calf Serum, 1% Penicillin/Streptomycin at 37° C./5% CO2. Cells are co-transfected using polyethylenimine (25 kDa linear) with four DNA plasmids encoding; hNPFFR1, GαoB, a Gi family specific intracellular effector fused to luciferase (BRET donor), a plasma membrane effector fused to GFP (BRET acceptor). After transfection, cells are cultured for 48 h at 37° C./5% CO2.
Receptor activity is detected by changes in BRET signal.
On the day of the assay, cells are detached using trypsin 0.05%, resuspended in assay buffer (1.8 mM CaCl2, 1 mM MgCl2, 2.7 mM KCl, 137 mM NaCl, 0.4 mM NaH2PO4, 5.5 mM D-Glucose, 11.9 mM NaHCO3, 25 mM Hepes) and seeded in 384 well plate at a density of 20,000 cells per well. Then, plates are equilibrated 3.5 hours at 37° C. before adding compounds.
Compounds and luciferase substrate are added to the cells using an automated device (Freedom Evo®, Tecan) and BRET readings are collected on EnVision (PerkinElmer) with specific filters (410 nm BW 80 nm, 515 nm BW 30 nm).
Agonist and antagonist activities of compounds are consecutively evaluated on the same cell plate. Agonist activity is first measured after 10 minutes incubation with compound alone on the cells. Then, cells are stimulated by an EC80 RFRP-3 concentration and luminescence is recorded for additional 10 minutes. EC80 RFRP-3 concentration is the concentration giving 80% of the maximal RFRP-3 response. Agonist or antagonist activities are evaluated in comparison to basal signals evoked by assay buffer or EC80 RFRP-3 alone, respectively.
For IC50 determination, a dose-response test is performed using 20 concentrations (ranging over 6 logs) of each compound. Dose-response curves are fitted using the sigmoidal dose-response (variable slope) analysis in GraphPad Prism software (GraphPad Software) and IC50 of antagonist activity is calculated. Dose-response experiments are performed in duplicate, in two independent experiments.
On the technique in general: BRET reads energy transfer from a luciferase to a nearby fluorophore.

For the next data set, the target named is T3, hNPFFR1 (Homo sapiens, UniProt Q9GZQ6).
T3 construct: expressed in transfected cells; membranes
Briefly: Radioligand binding competition, membranes from CHO cells expressing hNPFFR1. Particulars: 0.015 nM [D-Tyr1[125I], N-MePhe3]-NPFF, 1 hr at 25° C.; for Ki: read-out: NPFF1-R Ki. The protocol: as §1

T1 sequence (Q9Y5X5 whole entry): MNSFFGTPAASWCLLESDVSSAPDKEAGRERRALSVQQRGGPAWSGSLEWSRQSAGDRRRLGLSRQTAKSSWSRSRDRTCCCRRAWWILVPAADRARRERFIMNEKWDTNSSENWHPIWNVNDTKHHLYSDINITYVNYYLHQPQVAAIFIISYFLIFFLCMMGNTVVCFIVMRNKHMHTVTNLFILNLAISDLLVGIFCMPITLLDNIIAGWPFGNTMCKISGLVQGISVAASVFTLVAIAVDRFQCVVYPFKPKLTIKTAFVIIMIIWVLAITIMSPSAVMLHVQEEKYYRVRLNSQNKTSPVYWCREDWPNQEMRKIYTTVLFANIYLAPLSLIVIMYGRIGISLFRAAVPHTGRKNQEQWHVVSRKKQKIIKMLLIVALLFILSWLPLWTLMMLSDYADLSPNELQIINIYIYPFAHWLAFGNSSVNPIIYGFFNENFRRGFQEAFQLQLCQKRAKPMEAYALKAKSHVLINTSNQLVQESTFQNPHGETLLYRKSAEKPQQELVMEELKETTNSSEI
T3 sequence (Q9GZQ6 whole entry): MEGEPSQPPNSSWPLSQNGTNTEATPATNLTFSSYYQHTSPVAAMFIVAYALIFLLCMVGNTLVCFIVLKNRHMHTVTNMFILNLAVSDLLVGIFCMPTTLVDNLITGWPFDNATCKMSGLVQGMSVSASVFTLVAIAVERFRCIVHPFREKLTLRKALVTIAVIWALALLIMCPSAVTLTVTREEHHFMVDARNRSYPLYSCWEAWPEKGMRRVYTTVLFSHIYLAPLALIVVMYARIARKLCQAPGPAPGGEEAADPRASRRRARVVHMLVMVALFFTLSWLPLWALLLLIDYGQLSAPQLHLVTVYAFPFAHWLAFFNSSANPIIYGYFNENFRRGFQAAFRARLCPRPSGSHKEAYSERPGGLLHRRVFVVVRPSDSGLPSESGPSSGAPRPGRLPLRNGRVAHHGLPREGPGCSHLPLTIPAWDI
T2 sequence (Q9GZQ6 whole entry): as above

For `Nc1ccc(-c2cccc(Cl)c2Cl)c(NCc2ccccc2)n1` [Compound 5d, N2-benzyl-3-(2,3-dichlorophenyl)pyridine-2,6-diamine], the results for the Ki on hNPFFR2 and on hNPFFR1 were 1900 nM and 84 nM, respectively. In data set [1], the IC50 was above 1000 nM.

With `COc1ccccc1-c1ccc(N)nc1C1CC1` [Compound 6i, 6-cyclopropyl-5-(2-methoxyphenyl)pyridin-2-amine], the Ki at hNPFFR2 turned out to be 1400 nM; at hNPFFR1, 31 nM. The IC50 in data set [1] is 500 to 1000 nM.

Consider `Nc1ccc(-c2ccccc2-c2ccccc2)c(N)n1` [Compound 1r, 3-([1,1′-biphenyl]-2-yl)pyridine-2,6-diamine], for which the Ki on hNPFFR2 came to 700 nM; at hNPFFR1, 20.7 nM. Besides, in data set [1], the IC50 lay in the range of 100 to 500 nM.

Turning to `Nc1ccc(-c2cccc(Cl)c2Cl)c(NCCN2CCCCC2)n1` [Compound 5h, 3-(2,3-dichlorophenyl)-N2-(2-(piperidin-1-yl)ethyl)pyridine-2,6-diamine], the Ki was determined as 3200 nM on hNPFFR2 and 1920 nM on hNPFFR1.

As for `COc1cc(N)nc(N)c1-c1cccc(Cl)c1Cl` [Compound 8a, 3-(2,3-dichlorophenyl)-4-methoxypyridine-2,6-diamine], the Ki on hNPFFR2 is above 50000 nM; on hNPFFR1, 4080 nM.

In the case of `Nc1ccc(-c2ccccc2C(F)(F)F)c(N)n1` [Compound 1f, 3-(2-(trifluoromethyl)phenyl) pyridine-2,6-diamine], the Ki at hNPFFR2 worked out at 6700 nM; on hNPFFR1, 22.4 nM. For the same molecule, the IC50 in data set [1] fell in the range of 500 to 1000 nM.

In the case of `CC(C)Nc1nc(N)ccc1-c1cccc(Cl)c1Cl` [Compound 5e, 3-(2,3-dichlorophenyl)-N2-isopropylpyridine-2,6-diamine], the Ki on hNPFFR2 turned out to be 1900 nM; at hNPFFR1, 250 nM. In data set [1], the IC50 was above 1000 nM.

As for `CCCc1nc(N)ccc1-c1ccccc1OC` [Compound 6g, 5-(2-methoxyphenyl)-6-propylpyridin-2-amine], the Ki at hNPFFR2 came out at 470 nM; at hNPFFR1 it was 6.3 nM. In addition, the IC50 in data set [1] fell in the range of 100 to 500 nM.

`Nc1ccc(Cc2cccc(Cl)c2)c(N)n1` [Compound 10d, 3-(3-chlorobenzyl)pyridine-2,6-diamine]: the Ki at hNPFFR2 stood at 900 nM; at hNPFFR1, 19 nM. In addition, the concentration for half-maximal inhibition (IC50) in data set [1] lay within 500 to 1000 nM.

In the case of `CCOc1ccccc1-c1ccc(N)nc1N` [Compound 2d, 3-(2-ethoxyphenyl)pyridine-2,6-diamine], the Ki at hNPFFR2 was determined as 700 nM; on hNPFFR1, 15 nM. Also, the IC50 in data set [1] is 100 to 500 nM.

As for `COc1ccc(-c2ccc(N)nc2N)c(OC)c1` [Compound 2m], the Ki was 1870 nM on hNPFFR2 and 45.7 nM at hNPFFR1. The IC50 in data set [1] was above 1000 nM.

As to `Nc1ccc(-c2cc3ccccc3o2)c(N)n1` [Compound 3c, 3-(benzofuran-2-yl) pyridine-2,6-diamine], the Ki on hNPFFR2 was 34000 nM; at hNPFFR1, 524 nM.

Regarding `Nc1ccc(-c2ccco2)c(N)n1` [Compound 3a, 3-(furan-2-yl)pyridine-2,6-diamine], the Ki at hNPFFR2 was found to be 106000 nM; on hNPFFR1 it was 5080 nM.

For `Nc1ccc(-c2cccc(Cl)c2Cl)c(NCCc2ccccc2)n1` [Compound 5f, 3-(2,3-dichlorophenyl)-N2-phenethylpyridine-2,6-diamine], the figures for the Ki at hNPFFR2 and on hNPFFR1 were 800 nM and 424 nM, respectively.

Consider “3-(2-(piperidin-1-yl)ethoxy)pyridine-2,6-diamine [Compound 2j]”, for which the Ki at hNPFFR2 worked out at 450 nM; on hNPFFR1, 33 nM.

`COc1nc(N)ccc1-c1cccc(Cl)c1Cl` [Compound 7a, 5-(2,3-dichlorophenyl)-6-methoxypyridin-2-amine]: the “NPFF2-R Ki (nM)” value at hNPFFR2 is given as “ns”. The “NPFF1-R Ki (nM)” value at hNPFFR1 was “ns”.

In the case of `Cc1c(Cl)cccc1-c1ccc(N)nc1N` [Compound 1q, 3-(3-chloro-2-methylphenyl) pyridine-2,6-diamine], the Ki at hNPFFR2 turned out to be 7300 nM; on hNPFFR1, 112 nM.

As to `Nc1ccc(-c2ccoc2)c(N)n1` [Compound 3b, 3-(furan-3-yl)pyridine-2,6-diamine], at hNPFFR2, the “NPFF2-R Ki (nM)” value is listed as “n.s”. The “NPFF1-R Ki (nM)” value on hNPFFR1 is on record as “n.s”.

For the molecule “5-(2-methoxyphenyl)-6-(trifluoromethoxy)pyridin-2-amine [Compound 6f]”, the Ki on hNPFFR2 is above 10000 nM; on hNPFFR1, above 5000 nM.

Turning to `Nc1ccc(CCc2ccccc2)c(N)n1` [Compound 11a, 3-phenethylpyridine-2,6-diamine], the Ki at hNPFFR2 is 5400 nM; on hNPFFR1, 189 nM.

As for `Nc1nc(N)c(-c2cccc(Cl)c2Cl)cc1F` [Compound 9a, 3-(2,3-dichlorophenyl)-5-fluoropyridine-2,6-diamine], the Ki on hNPFFR2 was 1800 nM; on hNPFFR1, 3240 nM.

With “4′-methyl-[3,4′-bipyridine]-2,6-diamine [Compound 3f]”, the “NPFF2-R Ki (nM)” value on hNPFFR2 is reported as “ns”. For the same molecule, on hNPFFR1, the Ki came out at 515 nM.

Regarding `COCCNc1nc(N)ccc1-c1cccc(Cl)c1Cl` [Compound 5g, 3-(2,3-dichlorophenyl)-N2-(2-methoxyethyl)pyridine-2,6-diamine], the “NPFF2-R Ki (nM)” value on hNPFFR2 is given as “ns”. The Ki on hNPFFR1 is 481 nM.

Regarding `CCc1cc(-c2cccc(Cl)c2Cl)c(N)nc1N` [Compound 9b, 3-(2,3-dichlorophenyl)-5-ethylpyridine-2,6-diamine], the results for the Ki at hNPFFR2 and on hNPFFR1 were 3300 nM and 1090 nM, respectively.

Turning to “3-(2-methoxyethoxyphenyl)pyridine-2,6-diamine [Compound 2h]”, the Ki at hNPFFR2 came to 35700 nM; at hNPFFR1, 26 nM.

On to `Nc1ccc(-c2c(Cl)cccc2Cl)c(N)n1` [Compound 1m, 3-(2,6-dichlorophenyl) pyridine-2,6-diamine], for which the Ki is above 10000 nM on hNPFFR2 and 94 nM on hNPFFR1.

`CCCCNc1nc(N)ccc1-c1cccc(Cl)c1Cl` [Compound 5c, N2-butyl-3-(2,3-dichlorophenyl)pyridine-2,6-diamine]: the Ki at hNPFFR2 turned out to be 6900 nM; at hNPFFR1, 416 nM.

In turn, `COc1ccccc1-c1c(C)cc(N)nc1C` [Compound 27, 5-(2-Methoxy-phenyl)-4,6-dimethyl-pyridin-2-ylamine] displayed a melting point of 178 to 181 °C. The IC50 in data set [1] was above 1000 nM.

With `COc1ncccc1-c1ccc(N)nc1N` [Compound 89, 3-(2-methoxy-3-pyridyl)pyridine-2,6-diamine], the melting point was 174 to 176 °C. For the same molecule, the IC50 in data set [1] was above 1000 nM.

Take `Nc1ccc(-c2cccc(Cl)c2Cl)c(N2CCCCC2)n1` [Compound 5i, 5-(2,3-dichlorophenyl)-6-(piperidin-1-yl)pyridin-2-amine]: the Ki on hNPFFR2 turned out to be 6300 nM; at hNPFFR1, 440 nM.

In turn, `Cc1cc(Cl)ccc1-c1ccc(N)nc1N` [Compound 54, 3-(4-Chloro-2-methyl-phenyl)-pyridine-2,6-diamine] yielded a melting point of 80 to 85 °C. The IC50 in data set [1] was above 1000 nM.
